# In publication PMC8881610 (Nature Communications, 2022):
# Substitutions are numbered along the chain they refer to.
# Experiments:
# Format in all cases: cell-based
# [1] = molecular target: T1, GIPR (Homo sapiens, UniProt P48546, Q30A); assay: cAMP accumulation assay (LANCE Ultra cAMP kit), GIPR WT, mutant or modified constructs; set-up: acylated tirzepatide to the full-length or modified; Flag; expressed in transfected cells; host or cells: HEK293T; details: GIPR Q30A, HEK293T
# T1 sequence (P48546 22-466 Q30A): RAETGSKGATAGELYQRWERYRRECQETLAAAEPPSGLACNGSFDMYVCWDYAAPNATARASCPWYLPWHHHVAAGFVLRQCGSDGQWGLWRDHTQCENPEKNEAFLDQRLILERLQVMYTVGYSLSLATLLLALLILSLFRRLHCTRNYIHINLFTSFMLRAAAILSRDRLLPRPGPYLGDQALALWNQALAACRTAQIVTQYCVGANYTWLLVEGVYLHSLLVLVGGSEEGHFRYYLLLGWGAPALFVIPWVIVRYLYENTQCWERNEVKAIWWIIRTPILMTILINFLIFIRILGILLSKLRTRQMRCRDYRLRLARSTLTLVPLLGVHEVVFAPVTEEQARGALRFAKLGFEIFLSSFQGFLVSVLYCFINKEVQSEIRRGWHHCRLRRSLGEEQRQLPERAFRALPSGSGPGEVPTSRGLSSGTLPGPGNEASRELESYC
# Outline: (§1)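 HEK293T cells transiently transfected with human GIPR WT or mutant constructs (pcDNA3.1), used after 24 h. The cells were stimulated with peptide agonists for 40 min at RT in HBSS with 5 mM HEPES, 0.1% BSA or casein, and 0.5 mM IBMX. cAMP was read by LANCE Ultra TR-FRET (Eu-cAMP tracer/ULight anti-cAMP, 1 h RT, 620/650 nm).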
# [2] = molecular target: T2, GIPR (Homo sapiens, UniProt P48546, R196A); assay: as above; set-up: acylated tirzepatide to the full-length or modified; Flag; expressed in transfected cells; host or cells: HEK293T; details: GIPR R196A, HEK293T
# T2 sequence (P48546 22-466 R196A): T1 sequence (P48546 22-466 Q30A) with A9Q, R175A
# Outline: as §1
# [3] = molecular target: GLP-1R (Homo sapiens, UniProt P43220, R134A); assay: cAMP accumulation assay, GLP-1R WT, mutant or modified constructs; set-up: Flag; expressed in transfected cells; host or cells: HEK293T; details: GLP-1R R134A, HEK293T
# Chain of GLP-1R (Homo sapiens, UniProt P43220, R134A) (P43220 24-463 R134A): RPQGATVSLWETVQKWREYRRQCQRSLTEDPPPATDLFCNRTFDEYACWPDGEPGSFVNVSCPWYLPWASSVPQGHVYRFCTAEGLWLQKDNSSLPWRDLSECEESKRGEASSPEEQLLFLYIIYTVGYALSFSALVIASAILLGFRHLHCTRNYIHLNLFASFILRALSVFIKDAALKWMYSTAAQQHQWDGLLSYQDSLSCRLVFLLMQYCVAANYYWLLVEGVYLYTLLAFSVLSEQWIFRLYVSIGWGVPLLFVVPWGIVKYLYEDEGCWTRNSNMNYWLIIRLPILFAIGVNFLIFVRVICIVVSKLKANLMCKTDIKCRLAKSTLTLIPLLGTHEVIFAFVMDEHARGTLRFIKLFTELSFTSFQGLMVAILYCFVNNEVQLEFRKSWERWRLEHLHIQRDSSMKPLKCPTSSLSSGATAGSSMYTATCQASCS
# Outline: (§2)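 HEK293T cells transiently expressing wild-type, mutant or modified human GLP-1R (HA signal peptide constructs) were used. Cells were stimulated with peptide agonists for 40 min at room temperature in HBSS with 0.5 mM IBMX and 0.1% BSA or casein. cAMP was quantified by LANCE Ultra TR-FRET (620/650 nm).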
# [4] = molecular target: GLP-1R (Homo sapiens, UniProt P43220, W91A); assay: as above; set-up: Flag; expressed in transfected cells; host or cells: HEK293T; details: GLP-1R W91A, HEK293T
# Chain of GLP-1R (Homo sapiens, UniProt P43220, W91A) (P43220 24-463 W91A): as the sequence (P43220 24-463 R134A) above, with W68A, A111R counted along it
# Outline: as §2
# [5] = read-out: cAMP pEC50 (converted)
smiles,measurement,setting,value
CCCCCCCCCCCCCCCC(=O)N[C@@H](CCC(=O)NCCCC[C@H](NC(=O)[C@H](CC(=O)O)NC(=O)[C@H](CO)NC(=O)[C@@H](NC(=O)[C@H](Cc1ccccc1)NC(=O)[C@@H](NC(=O)CNC(=O)[C@H](CCC(N)=O)NC(=O)C(C)(C)NC(=O)[C@@H](N)Cc1c[nH]cn1)[C@@H](C)O)[C@@H](C)O)C(=O)N[C@@H](CO)C(=O)N[C@@H](CCCCN)C(=O)N[C@@H](Cc1ccc(O)cc1)C(=O)N[C@@H](CC(C)C)C(=O)N[C@@H](CC(=O)O)C(=O)N[C@@H](CCC(=O)O)C(=O)N[C@@H](CCCNC(=N)N)C(=O)N[C@@H](C)C(=O)N[C@@H](C)C(=O)N[C@@H](CCC(N)=O)C(=O)N[C@@H](CC(=O)O)C(=O)N[C@@H](Cc1ccccc1)C(=O)N[C@H](C(=O)N[C@@H](CCC(N)=O)C(=O)N[C@@H](Cc1c[nH]c2ccccc12)C(=O)N[C@@H](CC(C)C)C(=O)N[C@@H](CC(C)C)C(=O)N[C@@H](CC(=O)O)C(=O)NCC(=O)NCC(=O)N1CCC[C@H]1C(=O)N[C@@H](CO)C(=O)N[C@@H](CO)C(=O)NCC(=O)N[C@@H](C)C(=O)N1CCC[C@H]1C(=O)N1CCC[C@H]1C(=O)N1CCC[C@H]1C(=O)N[C@@H](CO)C(N)=O)C(C)C)C(=O)O [Peptide 20],EC50,[1]; [5],0.0427 nM
same,Emax,[1]; HEK-293T,100 ± 1.79%
same,EC50,[2]; [5],0.0468 nM
same,Emax,[2]; HEK-293T,98.5 ± 1.43%
same,EC50,[3]; [5],0.00661 nM
same,Emax,[3]; HEK-293T,101 ± 1.08%
same,EC50,[4]; [5],0.00603 nM
same,Emax,[4]; HEK-293T,100 ± 1.33%
